Measured values published in publication PMC7466040, “Sevanol and Its Analogues: Chemical Synthesis, Biological Effects and Molecular Docking” (Pharmaceuticals, 2020).

Legend:
[1] = biological target: T1, rat ASIC3 (Rattus norvegicus, UniProt O35240); assay: Two-electrode voltage clamp on X. laevis oocytes expressing rat ASIC3; assay type: cell-based
T1 construct: expressed in transfected cells; host or cells: Xenopus laevis oocytes (cRNA injection)
T1 sequence (O35240 1-533): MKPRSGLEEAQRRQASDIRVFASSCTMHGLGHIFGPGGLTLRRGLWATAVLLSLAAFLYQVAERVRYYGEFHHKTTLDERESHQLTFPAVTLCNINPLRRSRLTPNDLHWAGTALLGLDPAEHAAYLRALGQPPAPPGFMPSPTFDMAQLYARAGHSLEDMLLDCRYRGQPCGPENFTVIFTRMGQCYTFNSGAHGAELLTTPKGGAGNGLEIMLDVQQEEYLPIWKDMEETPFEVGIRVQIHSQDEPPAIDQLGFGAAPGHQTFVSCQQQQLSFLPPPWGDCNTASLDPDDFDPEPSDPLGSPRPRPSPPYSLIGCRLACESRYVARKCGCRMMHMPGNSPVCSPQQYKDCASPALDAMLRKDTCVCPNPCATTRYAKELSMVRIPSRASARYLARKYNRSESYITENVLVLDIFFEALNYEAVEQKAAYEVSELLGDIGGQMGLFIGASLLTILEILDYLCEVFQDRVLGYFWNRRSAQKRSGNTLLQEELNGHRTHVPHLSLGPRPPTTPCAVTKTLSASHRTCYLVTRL
Protocol: (§1) Testing the activity of synthetic sevanol (s706) (as a mixture of 75% of sevanol and 25% of isosevanol) and its analogues (s590, EA, and s788) was carried out by the standard two-electrode voltage clamp method on X. laevis oocytes expressing rat ASIC1a and ASIC3 channels. The activation of the channels was performed using a rapid change of the solution from conditioning pH 7.4 to a solution with pH 5.5. Sevanol and its two analogues, s590 and EA, inhibited ASIC1a and ASIC3 channels.
(§2) Oocytes were harvested from female frogs anaesthetized with tricaine methane sulfonate (MS222) (0.17% solution), and the surgery was performed in an ice bath to avoid heavy bleeding. Defolliculated stage IV and V cells were injected with 2.5 and 10 ng cRNA, synthesized from PCi plasmids containing the rat ASIC1a and rat ASIC3 isoforms, respectively, using the Nanoliter 2000 microinjection system (World Precision Instruments, USA). The injected oocytes were kept for 2–3 days at 17 to 19 °C, and then for up to 5 days at 15 °C in a ND96 medium containing (in mM) 96 NaCl, 2 KCl, 1.8 CaCl2, 1 MgCl2, and 5 HEPES titrated to pH 7.4 with NaOH supplemented with gentamycin (50 μg/mL). Two-electrode voltage clamp recordings were performed at a holding potential of −50 mV using a GeneClamp 500 amplifier (Axon Instruments), and the data were filtered at 20 Hz and digitized at 100 Hz by an AD converter L780 (LCard, Russia). Microelectrodes were filled with 3 M KCl. The conditioning bath solution was ND96; the pH was adjusted to 7.4. The activating test solution was constructed based on the ND-96 buffer, in which 5 mM HEPES was replaced with 10 mM MES and pH was adjusted to 5.5. A computer-controlled valve system was used to achieve a rapid solution exchange in the recording chamber. A four parameter logistic equation was used for the curve-fitting analysis: F(x) = ((a1 − a2)/(1 + (x/x0)n)) + a2, where x is the concentration of the compound; F(x) is the response value at a given concentration of the compound; a1 is the control response value (fixed at 100%); x0 is the IC50 value; n is the Hill coefficient (slope factor); and a2 is the response value at the maximal inhibition (% of control).
(§3) Figure 2 The inhibitory activity of sevanol (s706) and its analogues. Currents were elicited by a drop from pH 7.4 to 5.5; the holding potential was −50 mV; (A,C) are dose–response curves for s706, s590 and EA inhibitory effects on ASIC1a and ASIC3 channels, respectively; (B,D) are reciprocal IC50 values for s706, s590 and EA inhibitory effects on ASIC1a and ASIC3 channels, respectively. The data were fitted by the logistic equation. Each point is the mean ± SEM of 5–6 measurements. * p < 0.05, ** p < 0.005.

[2] = biological target: T2, rat ASIC1a (Rattus norvegicus, UniProt P55926); assay: Two-electrode voltage clamp on X. laevis oocytes expressing rat ASIC1a; assay type: cell-based
T2 construct: expressed in transfected cells; host or cells: Xenopus laevis oocytes (cRNA injection)
T2 sequence (P55926 1-526): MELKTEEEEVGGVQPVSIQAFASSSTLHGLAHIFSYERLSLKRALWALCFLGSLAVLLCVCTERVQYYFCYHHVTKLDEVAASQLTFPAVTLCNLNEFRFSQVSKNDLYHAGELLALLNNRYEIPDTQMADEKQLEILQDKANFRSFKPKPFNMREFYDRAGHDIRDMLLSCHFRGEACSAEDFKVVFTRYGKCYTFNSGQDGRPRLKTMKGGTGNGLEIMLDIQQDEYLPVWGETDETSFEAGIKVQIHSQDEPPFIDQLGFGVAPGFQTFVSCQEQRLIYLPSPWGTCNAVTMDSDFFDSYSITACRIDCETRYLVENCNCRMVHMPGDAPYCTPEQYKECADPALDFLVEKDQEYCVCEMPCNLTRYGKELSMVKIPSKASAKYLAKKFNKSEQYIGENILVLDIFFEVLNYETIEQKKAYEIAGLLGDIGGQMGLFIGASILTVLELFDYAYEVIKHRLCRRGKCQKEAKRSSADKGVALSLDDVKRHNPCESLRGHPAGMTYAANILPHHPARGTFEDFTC
Protocol: as §1, §2, §3

[3] = pH 7.4 to 5.5, effect reversible

IC50 ([1]; X. laevis oocytes, pH drop 7.4 to 5.5, holding potential −50 mV, mean ± SEM of 5–6, read-out: IC50, inhibition of ASIC3 current): 175 ± 18 µM
maximal current block, ASIC3 [1, 3]: 100%
effectiveness in inhibiting ASIC3 relative to ASIC1a ([1]; ratio of ASIC1a and ASIC3 inhibition): 1.3 times
IC50 ([2]; X. laevis oocytes, pH drop 7.4 to 5.5, holding potential −50 mV, mean ± SEM of 5–6, read-out: IC50, inhibition of ASIC1a current): 228 ± 37.4 µM
maximal current block, ASIC1a [2, 3]: 100%
Compound: O=C(O)CC(C(=O)O)C(OC(=O)C1=Cc2cc(O)c(O)cc2C(c2ccc(O)c(O)c2)C1C(=O)OC(C(=O)O)C(CC(=O)O)C(=O)O)C(=O)O (centres unmarked) [sevanol]
